Data: patent US8476317B2, “N-alkylcarbonyl-amino acid ester compounds and their use for cough and pharyngitis” (priority 2011, dated 2013)
pEC50: −log10 of the molar value. “And” between values parts separate entries of the source, which are not always exact repeats. Identical values can stand only once.

Legend:
TRP-M8 = molecular target: T1, TRP-M8 (Homo sapiens, UniProt Q7Z2W7); experiment: TRP-M8 receptor assay; format: cell-based; conditions: for pEC50: data from Prof. D. Bautista's laboratory
T1 construct: expressed in transfected cells
T1 sequence (Q7Z2W7 whole entry, species assumed): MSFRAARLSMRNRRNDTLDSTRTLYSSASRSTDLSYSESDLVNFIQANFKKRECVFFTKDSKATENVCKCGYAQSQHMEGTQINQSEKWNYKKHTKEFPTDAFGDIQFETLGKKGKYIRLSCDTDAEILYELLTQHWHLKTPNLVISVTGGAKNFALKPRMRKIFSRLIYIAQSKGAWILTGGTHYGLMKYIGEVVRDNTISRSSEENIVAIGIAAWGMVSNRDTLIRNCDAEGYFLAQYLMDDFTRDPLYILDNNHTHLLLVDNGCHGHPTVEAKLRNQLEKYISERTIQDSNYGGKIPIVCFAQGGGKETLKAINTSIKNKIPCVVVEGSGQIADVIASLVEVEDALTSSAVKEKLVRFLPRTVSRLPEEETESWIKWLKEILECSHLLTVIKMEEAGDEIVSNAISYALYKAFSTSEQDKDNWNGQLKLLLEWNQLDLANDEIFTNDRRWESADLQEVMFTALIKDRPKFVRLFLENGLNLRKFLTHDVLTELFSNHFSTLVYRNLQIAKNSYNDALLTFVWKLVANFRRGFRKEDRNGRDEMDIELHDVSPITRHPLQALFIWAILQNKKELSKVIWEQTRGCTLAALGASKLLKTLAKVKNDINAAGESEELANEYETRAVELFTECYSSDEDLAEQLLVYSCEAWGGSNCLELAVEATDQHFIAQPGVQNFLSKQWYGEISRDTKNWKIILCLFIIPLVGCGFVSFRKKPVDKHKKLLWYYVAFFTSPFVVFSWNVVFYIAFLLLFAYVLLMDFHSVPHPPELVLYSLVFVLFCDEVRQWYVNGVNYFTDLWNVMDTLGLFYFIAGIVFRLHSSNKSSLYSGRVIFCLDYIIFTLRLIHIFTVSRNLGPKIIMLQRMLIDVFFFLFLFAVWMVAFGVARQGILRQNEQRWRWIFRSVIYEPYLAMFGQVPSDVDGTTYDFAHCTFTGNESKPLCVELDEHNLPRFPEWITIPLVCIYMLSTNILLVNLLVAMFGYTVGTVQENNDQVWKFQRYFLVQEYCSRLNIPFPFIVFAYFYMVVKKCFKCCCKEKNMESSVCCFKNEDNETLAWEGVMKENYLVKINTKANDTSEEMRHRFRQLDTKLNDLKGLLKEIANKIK
Description: Psychic events such as refreshment, soothing, cooling, irritation, itch, and pain cannot be verbalized by animals (animals cannot say “it feels cold”, “ouch”, or that “it itches”). […] Receptor assays, based on cells transfected with the genes for proteins associated with thermosensation (e.g., TRP-M8, TRP-A1, TRP-V1) may be used as a model of sensory processes and provide quantitative data. […] The in vitro assay gives no information on onset and offset of action, but yields information on comparative potency of the two enantiomers. Further evaluation of the pharmacological properties of the test substances were based on direct tests in human subjects.
Thus, the D-configuration of the α-carbon of Ala is an absolute requirement for therapeutic utility in cough. This separation of activity between the D- and L-enantiomers was also apparent in the TRP-M8 receptor assay (data from Prof. D. Bautista's laboratory at the University of California at Berkeley). […] Thus, in an equal mixture (racemic) of D-Ala and L-Ala enantiomers, it is likely that ˜97% of the anti-cough activity would be contributed by the D-enantiomer (of Formula 1).

oral cavity / oropharynx = experiment: Cooling in oral cavity after application on dorsal surface of tongue; format: in vivo, human; conditions: dose of 1 to 2 mg, normal subjects
Method: The subject is instructed to close and hold the substance in the mouth for at least 10 seconds and not to swallow. The description of sensations is then recorded at 5 to 10 minute intervals.
The compounds of Formula 1 are white crystalline solids at room temperatures. These compounds were tested as the pure powder (>95% purity, by HPLC analysis), or mixed 1:1 with powdered or granulated sugar. The test substances were applied at 2 to 5 mg on the mid-point of the dorsal surface of the tongue using a metal spatula or a plastic applicator. After depositing the test substance on the tongue, the subject was instructed to keep the mouth closed and allow the fluids of the mouth to inter-mix with the test substance and to distribute it to the back of the mouth (oropharynx). The presence and duration of subjective sensations from the mouth was then recorded.

cough = format: in vivo, human; conditions: for cooling action of ODT on the pharyngeal surface: Study 6, ODT; for effectiveness in reducing cough: Study 6, ODT 2.0 to 2.5 mg, 14 adult males with cough
Method: In 20 trials, 10 trials per subject, two mg of 95%+ pure powder of a D-Ala ethyl compound (No. 2 in Table 1, (R)-2-[((1R,2S,5R)-2-isopropyl-5-methyl-cyclohexanecarbonyl)-amino]-propionic acid ethyl ester)) of Formula (1) was placed on the mid-portion of the tongue of these two subjects. Both subjects reported relief from the desire to cough within 1 minute after application. Sensations of robust coolness in the back of the throat was noted and lasted for about 30 minutes. Applications of similar amounts of powdered sugar were not effective. The placebo could be clearly distinguished from the active compound because of the absence of cooling sensations.
A person with a documented 31-year history of asthma attacks volunteered to test one of the compounds falling within Formula (1). They were extremely sensitive to agents such as tobacco smoke, dust, pollen, odors, down/woolen materials, house cleansing products, pets, and sudden change of air temperature, and reacted with violent coughing, mucus secretions, wheezing, choking, and shortness of breath. At the time of this trial, they were taking these medications for their condition: theophylline, Allegra®, Advair®, Intal®, and Singulair®. In 5 trials, during a coughing spree, they placed one to two mg of 95%+ pure powder of a D-Ala ethyl ester (No. 2 in Table 1, ((R)-2-[((1R,2S,5R)-2-isopropyl-5-methyl-cyclohexanecarbonyl)-amino]-propionic acid ethyl ester))) of Formula (1) on the mid-portion of their tongue. They reported a soothing and cool sensation with a slight taste similar to Eucalyptus oil in their mouth and throat. Coughing stopped after 3 to 5 minutes and breathing was normal. […] In three trials when the compound was applied at night, they slept through the night without being awakened by cough. Their spouse remarked that, in over 30 years of marriage, this was the first time that they had seen an effective medication for their cough. They noted that the irritative signals of cough were absent in the presence of the applied chemical, but they still sensed a mechanical build up of secretions in their airways and could voluntarily cough up such secretions if necessary. They continue to use the test compound for management of their asthma, with the knowledge and consent of their physician.
A person had adult-onset asthma for 20 years. Triggers for attacks were tobacco smoke, dust, and changes in air temperature. They used Foradil® (formoterol fumarate) and Asmanex® (mometasone fuorate) twice a day to control their asthma, and monitored their pulmonary function with a portable device for measuring peak expiratory flow. They had daily episodes of both productive and non-productive cough. In 5 trials, when they felt throat irritation and a desire to cough, placement of 1 to 3 mg of (R)-2-[((1R,2S,5R)-2-isopropyl-5-methyl-cyclohexanecarbonyl)-amino]-propionic acid ethyl ester) (No. 2 in Table 1) provided rapid relief and was described as soothing and removed “tightness” in the chest. Peak expiratory flow improved from 320 Umin to 370 Umin. […] The subjective response to the long-acting NACE compound was definitely favourable. The subject remarked that the best time to use the NACE compuound was after inhaling the crystalline Foradil® because this inhaled drug irritated their throat.
ODT containing 2.0 to 2.5 mg of D-Aa Me Ester, D-Ala Et Ester, or D-Ala iPr Ester (identified chemically in Table 1 as No. 1, No. 2, and No. 3, respectively) were prepared using mannitol/maltitol as the excipient and stored in tic-tac boxes each containing 10 tablets. Over a course of two years, 14 adult males with cough tested these tablets. The causes of coughing were colds/flu, allergies, pharyngitis, excessive smoking, and two cases of gastroesophageal reflux. These individuals all had advanced degrees (M.D. or Ph.D.) and were motivated to try the tablets by scientific curiosity or because of financial interests in drug development, or, in several cases, by the annoyance caused by the cough. […]

SMILES: CCOC(=O)[C@@H](C)NC(=O)[C@@H]1C[C@H](C)CC[C@H]1C(C)C [D-Ala-OEt, (R)-2-[((1R,2S,5R)-2-isopropyl-5-methyl-cyclohexanecarbonyl)-amino]-propionic acid ethyl ester]
- difference of EC50, D-Ala-OEt versus L-Ala-OEt (TRP-M8; TRP-M8 receptor assay): 37 fold
- pEC50 (TRP-M8): 6.32 and 6.30
- duration of cooling sensations on the tongue (oral cavity / oropharynx): about 30 minutes
- duration of absence of irritation and itching at the back of the throat (cough signals) (cough; Study 3): 4 to 5 h
- time individual was observed not to cough (cough; Study 3): 6 to 8 h
- time desire to cough was removed (cough; Study 3, after 4 or 6 applications within 2 days): at least 5 days
- time to relief from the desire to cough (cough; Study 3, two cigar smokers, two mg powder on tongue): ≤ 1 min
- duration of robust coolness in the back of the throat (cough; Study 3, two mg powder on tongue): about 30 minutes
- time until coughing stopped (cough; Study 4, asthmatic, one to two mg on tongue): 3 to 5 min
- recurrence of asthmatic coughing attacks (cough; Study 4, continued use): have not recurred with any severity for one month
- effect when given in the midst of a productive cough spell (cough; Study 5, 3 episodes): no significant effects were observed
- relief of throat irritation and desire to cough (cough; Study 5, 5 trials, 1 to 3 mg): rapid relief
- Peak expiratory flow (cough; Study 5, asthmatic, 1 to 3 mg, improved from 320): 370 Umin
- cooling action of ODT on the pharyngeal surface (cough): robust cooling action
- effectiveness in reducing cough (cough): 100%
- side-effects (cough; human, in vivo): did not sense any build up of mucus or other side-effects

SMILES: COC(=O)[C@@H](C)NC(=O)[C@@H]1C[C@H](C)CC[C@H]1C(C)C [D-Ala-OMe, (R)-2-[((1R,2S,5R)-2-isopropyl-5-methyl-cyclohexanecarbonyl)-amino]-propionic acid methyl ester]
- duration of cooling sensations on the tongue (oral cavity / oropharynx): about 30 minutes
- cooling action of ODT on the pharyngeal surface (cough): robust cooling action
- effectiveness in reducing cough (cough): 100%

SMILES: CCOC(=O)C(C)NC(=O)[C@@H]1C[C@H](C)CC[C@H]1C(C)C (stereo partly drawn) [L-Ala-OEt]
- pEC50 (TRP-M8): 4.74
- cooling action of ODT on the pharyngeal surface (cough): inactive
